Assay [1] deals with Bacillus subtilis. As to the kind of experiment: Antibacterial activity against Bacillus subtilis NCIM 2063 assessed as zone of inhibition at 100 ug/disc after 24 hrs by disk diffusion method. Conditions: NCIM 2063, 24 h, read-out: DIZ. The assay is classed as functional.
Assay [2] relates to Fusarium solani. As to the kind of experiment: Antifungal activity against Fusarium solani NCIM 1330 assessed as zone of inhibition at 100 ug/disc after 48 hrs by disk diffusion method. Conditions: NCIM 1330, 48 h, read-out: DIZ. The format is functional. (In general: A growth-free zone around the sample is the usual read-out of agar diffusion tests.)
For assay [3], the system named is Proteus vulgaris. The experiment in a line: Antibacterial activity against Proteus vulgaris NCIM 2027 assessed as zone of inhibition at 200 ug/disc after 24 hrs by disk diffusion method. The format is functional. Conditions: NCIM 2027, 24 h, read-out: DIZ.
The subject of assay [4] is Bacillus subtilis. As to the kind of experiment: Antibacterial activity against Bacillus subtilis NCIM 2063 assessed as zone of inhibition at 200 ug/disc after 24 hrs by disk diffusion method. The assay is classed as functional. Conditions: NCIM 2063, 24 h, read-out: DIZ.
Assay [5] concerns Mycobacterium tuberculosis. The experiment in a line: Antimycobacterial activity against Mycobacterium tuberculosis H37Rv at 1.5 to 50 ug/ml after 7 days by resazurin microtiter plate assay. The format is functional, organism-based.
Assay [6] has as its system Fusarium solani. As to the kind of experiment: Antifungal activity against Fusarium solani NCIM 1330 assessed as zone of inhibition at 200 ug/disc after 48 hrs by disk diffusion method. The assay is classed as functional. Conditions: NCIM 1330, 48 h, read-out: DIZ.
Assay [7] concerns Staphylococcus aureus. The experiment in a line: Antibacterial activity against Staphylococcus aureus NCIM 5021 assessed as zone of inhibition at 100 ug/disc after 24 hrs by disk diffusion method. Conditions: NCIM 5021, 24 h, read-out: DIZ. The assay is classed as functional.
Assay [8] relates to Aspergillus niger. As to the kind of experiment: Antifungal activity against Aspergillus niger NCIM 596 assessed as zone of inhibition at 100 ug/disc after 48 hrs by disk diffusion method. The format is functional. Conditions: NCIM 596, 48 h, read-out: DIZ.
Assay [9] deals with Proteus vulgaris. As to the kind of experiment: Antibacterial activity against Proteus vulgaris NCIM 2027 assessed as zone of inhibition at 100 ug/disc after 24 hrs by disk diffusion method. Conditions: NCIM 2027, 24 h, read-out: DIZ. The format is functional.
Assay [10] has as its system Curvularia lunata. As to the kind of experiment: Antifungal activity against Curvularia lunata NCIM 716 assessed as zone of inhibition at 100 ug/disc after 48 hrs by disk diffusion method. The format is functional. Conditions: NCIM 716, 48 h, read-out: DIZ.
In assay [11] the test system is Staphylococcus aureus. As to the kind of experiment: Antibacterial activity against Staphylococcus aureus NCIM 5021 assessed as zone of inhibition at 200 ug/disc after 24 hrs by disk diffusion method. The assay is classed as functional. Conditions: NCIM 5021, 24 h, read-out: DIZ.
Assay [12] concerns Klebsiella pneumoniae. The experiment in a line: Antibacterial activity against Klebsiella pneumoniae NCIM 2957 assessed as zone of inhibition at 100 ug/disc after 24 hrs by disk diffusion method. The format is functional. Conditions: NCIM 2957, 24 h, read-out: DIZ.
Assay [13] relates to Aspergillus niger. The experiment in a line: Antifungal activity against Aspergillus niger NCIM 596 assessed as zone of inhibition at 200 ug/disc after 48 hrs by disk diffusion method. The assay is classed as functional. Conditions: NCIM 596, 48 h, read-out: DIZ.
Assay [14] concerns Curvularia lunata. As to the kind of experiment: Antifungal activity against Curvularia lunata NCIM 716 assessed as zone of inhibition at 200 ug/disc after 48 hrs by disk diffusion method. Conditions: NCIM 716, 48 h, read-out: DIZ. The assay is classed as functional.
Assay [15] has as its system Klebsiella pneumoniae. As to the kind of experiment: Antibacterial activity against Klebsiella pneumoniae NCIM 2957 assessed as zone of inhibition at 200 ug/disc after 24 hrs by disk diffusion method. The assay is classed as functional. Conditions: NCIM 2957, 24 h, read-out: DIZ.
The test system of assay [16] is Curvularia lunata. As to the kind of experiment: Antifungal activity against Curvularia lunata NCIM 716 after 48 hrs by disk diffusion method. Conditions: NCIM 716, 48 h. The assay is classed as functional.
Assay [17] relates to Fusarium solani. As to the kind of experiment: Antifungal activity against Fusarium solani NCIM 1330 after 48 hrs by disk diffusion method. The format is functional. Conditions: NCIM 1330, 48 h.
Assay [18] has as its system Aspergillus niger. The experiment in a line: Antifungal activity against Aspergillus niger NCIM 596 after 48 hrs by disk diffusion method. The assay is classed as functional. Conditions: NCIM 596, 48 h.

Data on five compounds can be found in ChEMBL document CHEMBL1926563, “Synthesis, antimicrobial, antimycobacterial and structure-activity relationship of substituted pyrazolo-, isoxazolo-, pyrimido- and mercaptopyrimidocyclohepta[b]indoles” (2012).

Structures are written as SMILES. Values after ≈ are worked out from the molar mass of the structure shown. Active and inactive are the calls of the source. The calls are words filed in the database; no cut-off is given here.

The MIC is the least concentration at which growth counts as inhibited.

In the case of `Cc1ccc2[nH]c3c(c2c1)CCCc1cnn(-c2ccccc2)c1-3`, the zone of inhibition at 100 µg/disc in assay [1] came to 29 mm; in [2], 30 mm; in assay [7], 27 mm; in [8], 29 mm; in assay [9], 21 mm; in assay [10], 31 mm. In addition, the zone of inhibition at 100 µg/disc in [12] is 26 mm. Also, the zone of inhibition at 200 µg/disc in [3] is 23 mm; in assay [4], 31 mm; in [6], 34 mm; in assay [11], 30 mm; in assay [13], 30 mm; in [14], 31 mm. In addition, the zone of inhibition at 200 µg/disc in assay [15] is 28 mm. In assay [5], the MIC result is “inactive”.

For `c1ccc2c3c([nH]c2c1)-c1n[nH]cc1CCC3`, the zone of inhibition at 100 µg/disc in assay [1] amounted to 26 mm; in assay [2] it was 30 mm; in assay [7] it was 27 mm; in assay [8] it was 28 mm; in assay [9], 22 mm; in assay [10] it was 31 mm. The zone of inhibition at 100 µg/disc in assay [12] was 23 mm. Also, the zone of inhibition at 200 µg/disc came to 25 mm in [3]; 28 mm in assay [4]; 35 mm in assay [6]; 29 mm in [11]; 31 mm in assay [13]; 33 mm in assay [14]. In addition, the zone of inhibition at 200 µg/disc in [15] was 26 mm. The MIC result in [5] was “inactive”.

Turning to `CC(=O)N1CCN(c2ccc(OCC3COC(Cn4ccnc4)(c4ccc(Cl)cc4Cl)O3)cc2)CC1` (centres undefined) [KETOCONAZOLE], the zone of inhibition at 100 µg/disc worked out at 36 mm in [2], 35 mm in [8] and 40 mm in assay [10]. Besides, the zone of inhibition at 200 µg/disc in assay [6] came out at 40 mm; in assay [13], 38 mm; in assay [14] it was 43 mm. Moreover, the minimal inhibitory concentration (MIC) in [16] was 6.25 µg/mL (≈ 11.8 µM); in [17], 12.5 µg/mL (≈ 23.5 µM); in [18] it was 6.25 µg/mL (≈ 11.8 µM).

On to `Oc1ncc2c(n1)-c1[nH]c3ccccc3c1CCC2`, for which the zone of inhibition at 100 µg/disc in assay [1] came out at 27 mm; in assay [2], 13 mm; in assay [7], 25 mm; in [8], 11 mm; in assay [9], 21 mm; in [10], 16 mm. In addition, in assay [12], the zone of inhibition at 100 µg/disc was 22 mm. The zone of inhibition at 200 µg/disc in assay [3] worked out at 23 mm; in [4], 29 mm; in assay [6], 16 mm; in [11], 28 mm; in assay [13], 15 mm; in [14] it was 18 mm. Further, the zone of inhibition at 200 µg/disc in [15] came to 24 mm. In addition, the MIC entry in [5] was “inactive”.

Take `Sc1ncc2c(n1)-c1[nH]c3ccccc3c1CCC2`: the zone of inhibition at 100 µg/disc in assay [1] is 12 mm; in assay [2], 11 mm; in assay [7] it was 11 mm; in assay [8], 10 mm; in [9] it was 8 mm; in assay [10], 13 mm. Further, the zone of inhibition at 100 µg/disc in assay [12] came to 9 mm. Besides, the zone of inhibition at 200 µg/disc came to 10 mm in assay [3]; 14 mm in assay [4]; 14 mm in [6]; 13 mm in [11]; 13 mm in assay [13]; 16 mm in assay [14]. Besides, the zone of inhibition at 200 µg/disc in [15] came out at 11 mm. In addition, the MIC entry in assay [5] was “inactive”.
